Assay results as given in PMC7320011, “Rationally designed ruthenium complexes for 1- and 2-photon photodynamic therapy” (Nature Communications, 2020).
Where two headings read alike, the source gives them in different places.

Legend:
[1] = test system: mouse colon carcinoma (CT-26) cells; assay: (Photo-)cytotoxicity on 2D cell monolayers, CT-26; conditions: for PI (480 nm): CT-26, dark vs 480 nm; for PI (540 nm): CT-26, dark vs 540 nm; for IC50: 1-3 as chloride salts
Description: (§1) A total of 4 × 10^3 cells were seeded on 96-well plates and allowed to adhere overnight. The cells were treated with increasing concentrations of the sample diluted in cell media achieving a total volume of 200 μL. The cells were incubated with the sample for 8 h and, after this time, the medium refreshed. To study the phototoxic effect of the sample, the cells were exposed to 480 nm (spectral half-width: 20 nm, 10 min, 5.2 mW cm^−2, 3.1 J cm^−2) or 540 nm (spectral half-width: 30 nm, 40 min, 4.0 mW cm^−2, 9.5 J cm^−2) light using an Atlas Photonics LUMOS BIO irradiator. To study the dark cytotoxicity of the sample, the cells were not irradiated and the medium exchanged. The cells were grown for an additional 40 h at 37 °C. After this time, the medium was replaced with fresh medium containing resazurin with a final concentration of 0.2 mg mL^−1. The cells were incubated for 4 h and the amount of the fluorescent product resorufin determined (λex = 540 nm, λem = 590 nm) with a SpectraMax M2 Microplate Reader (Molecular Devices). The obtained data was analyzed with the GraphPad Prism software.

[2] = Photostability (absorption spectra upon irradiation); format: physicochemical; conditions: 450 nm, 0 to 10 min (13.2 J cm^−2), air-saturated acetonitrile
Description: The sample was prepared in an air-saturated acetonitrile solution. Using a Atlas Photonics LUMOS BIO irradiator, the sample was constantly irradiated at 450 nm in time intervals from 0 to 10 min (13.2 J cm^−2). The absorption spectra from 350 to 700 nm was monitored with a SpectraMax M2 Microplate Reader (Molecular Devices) at each time interval. As positive and negative controls, respectively, [Ru(2,2′-bipyridine)3]Cl2 and Protoporphyrin IX were used.

[3] = Excited state lifetime; format: physicochemical; conditions: for τ air, excited state lifetime: air saturated acetonitrile; for τ degassed, excited state lifetime: degassed acetonitrile
Description: The sample was prepared in an air saturated as well as a degassed acetonitrile solution with an absorption of 0.2 at 355 nm. The sample was irradiated at 355 nm with a NT342B Nd-YAG pumped optical parametric oscillator (Ekspla). The emission was focused at right angle to the excitation pathway and directed to a Princeton Instruments Acton SP-2300i monochromator. The signal was detected with a R928 photomultiplier tube (Hamamatsu).

[4] = Singlet oxygen quantum yield, direct evaluation (1O2 phosphorescence); format: physicochemical
Description: Direct evaluation: the sample was prepared in an air-saturated acetonitrile or deuterated water solution with an absorption of 0.2 at 450 nm. The sample was irradiated at 450 nm with a mounted M450LP1 LED (Thorlabs), whose light was focused with aspheric condenser lenses. Using a T-Cube LED Driver (Thorlabs), the intensity of the irradiation was varied and monitored with an optical power and energy meter. The emission was focused at right angle to the excitation pathway and directed to a Princeton Instruments Acton SP-2300i monochromator. To cut off light at wavelengths shorter than 850 nm, a longpass glass filter was placed in front of the monochromator entrance slit. The signal was detected with an EO-817L IR-sensitive liquid-nitrogen cooled germanium diode detector (North Coast Scientific Corp.). The luminescence signal, centered at 1270 nm, was measured from 1100 to 1400 nm. The obtained data were analyzed upon plotting the integrated luminescence peaks against the percentage of the irradiation intensity. The slope of the linear regression was calculated and compared with the reference Rose Bengal (Φ = 76%)[59]. The absorption of the sample was corrected with an absorption correction factor. The singlet oxygen quantum yields were calculated using the following formula:4 Φsample=Φreference×Ssample/Sreference×Ireference/Isample, 5 I=I0×1−10^-A.
Φ = singlet oxygen quantum yield, S = slope of the linear regression of the plot of the areas of the singlet oxygen luminescence peaks against the irradiation intensity, I = absorption correction factor, I0 = light intensity of the irradiation source, and A = absorption of the sample at irradiation wavelength.

[5] = Emission and luminescence quantum yield; format: physicochemical; conditions: acetonitrile
Description: The absorption spectra of the sample was measured with a SpectraMax M2 Spectrometer (Molecular Devices). For the measurements of the emission, the sample was irradiated at 355 nm with a NT342B Nd-YAG pumped optical parametric oscillator (Ekspla). The emission was focused at right angle to the excitation pathway and directed to a Princeton Instruments Acton SP-2300i monochromator. The signal was detected with a XPI-Max 4 CCD camera (Princeton Instruments).
The sample was prepared in an acetonitrile solution with an absorption of 0.1 at 355 nm. The sample was irradiated at 355 nm with a NT342B Nd-YAG pumped optical parametric oscillator (Ekspla). The emission was focused at right angle to the excitation pathway and directed to a Princeton Instruments Acton SP-2300i monochromator. The signal was detected with a XPI-Max 4 CCD camera (Princeton Instruments). The luminescence quantum yields were determined by comparison with the reference [Ru(2,2′-bipyridine)3]Cl2 in acetonitrile (Φem = 5.9%)[58] applying the following formula:2 Φem,sample=Φem,reference×Freference/Fsample×Isample/Ireference×nsample/nreference^2, 3 F=1−10^-A. Φem = luminescence quantum yield, F = fraction of light absorbed, I = integrated emission intensities, n = refractive index, A = absorbance of the sample at irradiation wavelength.

[6] = Two-photon absorption cross section; format: physicochemical; conditions: dichloromethane
Description: The two-photon absorption cross section spectra of the sample was determined upon direction comparison to Rhodamine B. The sample was irradiated with an OpoletteTM 355II (pulse width ≤ 100 fs, 80 MHz repetition rate, Spectra Physics Inc.) laser. The experimental excitation and detection conditions were conducted with negligible reabsorption processes, which could affect two-photon absorption measurements. The quadratic dependence of the two-photon induced luminescence intensity on the excitation power was verified at an excitation wavelength of 800 nm. The two-photon absorption cross section was calculated using the following equation:1 σ2,sample=σ2,reference×Φreference×creference×Isample×nsample/Φsample×csample×Ireference×nreference,
σ2 = two-photon cross section, Φ = luminescence quantum yield, c = concentration, I = integrated luminescence intensity, n = refractive index

[7] = Distribution coefficient (shake-flask, octanol/PBS); format: physicochemical; conditions: ICP-MS
Description: Using the “shake-flask” method, the distribution coefficient between the PBS and octanol phase of the sample was determined. The PBS and octanol phases were previously saturated in each other. The sample was dissolved in the phase, which is dissolving best the compound. This solution was added to an equal volume of the other phase and mixed at 190 rpm overnight with a sample mixer. Following this, the solutions were equilibrated for 4 h. The phases were carefully separated from each other. The amount of the sample in each phase was determined by ICP-MS. The evaluation was repeated three times and the ratio between the organic and aqueous phase determined.

[8] = test system: human glioblastoma astrocytoma (U373) cells;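 also: Resazurin-to-resorufin fluorescence viability readout, 8 h compound exposure then medium change, light dose 3.1 J cm^−2 at 480 nm or 9.5 J cm^−2 at 540 nm, analysed 40 h later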
[9] = test system: noncancerous retinal pigment epithelium (RPE-1) cells
Description: as §1

[10] = test system: mouse colon carcinoma (CT-26) cells
Description: as §1

[11] = test system: human cervical carcinoma (HeLa) cells; assay: (Photo-)cytotoxicity on 2D cell monolayers, HeLa; format: cell-based; conditions: for IC50: 1-3 as chloride salts; for PI (480 nm): dark vs 480 nm; for PI (540 nm): dark vs 540 nm
Description: as §1

[12] = test system: human glioblastoma astrocytoma (U373) cells; assay: (Photo-)cytotoxicity on 2D cell monolayers, U373; conditions: for PI (480 nm): U373, dark vs 480 nm; for PI (540 nm): U373, dark vs 540 nm; for IC50: 1-3 as chloride salts;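 as to all read-outs here: Resazurin-to-resorufin fluorescence viability readout, 8 h compound exposure then medium change, light dose 3.1 J cm^−2 at 480 nm or 9.5 J cm^−2 at 540 nm, analysed 40 h later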
[13] = read-out: IC50 540 nm (40 min, 9.5 J cm-2), CT-26, 540 nm
[14] = read-out: IC50 dark, CT-26, dark
[15] = 480 nm, read-out: IC50 480 nm (10 min, 3.1 J cm-2)
[16] = 540 nm, read-out: IC50 540 nm (40 min, 9.5 J cm-2)
[17] = read-out: IC50 480 nm (10 min, 3.1 J cm-2), U373, 480 nm
[18] = read-out: IC50 dark, U373, dark

Structure (SMILES) | PI (480 nm) [1] | PI (540 nm) [1] | IC50 [1, 13] [µM] | IC50 [1, 14] [µM] | photostability (change of absorption spectra upon irradiation) [2] | τ air, excited state lifetime [3] [ns] | τ degassed, excited state lifetime [3] [ns] | Singlet oxygen quantum yield, Direct 450 nm CH3CN [4] [%] | Φem, luminescence quantum yield [5] [%] | λem, emission maximum [5] [nm] | σ2, 2P absorption cross section [6] [GM] | logD (octanol/PBS) [7] | IC50 [8] [µM] | IC50 [9] [µM] | IC50 [10] [µM] | IC50 [11, 15] [µM] | IC50 [11, 16] [µM] | PI (540 nm) [11] | IC50 ([11]; dark, read-out: IC50 dark) [µM] | PI (480 nm) [12] | other results
COc1ccc(/C=C/c2ccnc(-c3cc(/C=C/c4ccc(OC)cc4)ccn3)c2)cc1.COc1ccc(/C=C/c2ccnc(-c3cc(/C=C/c4ccc(OC)cc4)ccn3)c2)cc1.COc1ccc(/C=C/c2ccnc(-c3cc(/C=C/c4ccc(OC)cc4)ccn3)c2)cc1.F[P-](F)(F)(F)(F)F.F[P-](F)(F)(F)(F)F.[Ru+2] [compound 3, [Ru((E,E′)-4,4′-Bis[p-methoxystyryl]-2,2′-bipyridine)3][PF6]2] | > 5.2 | > 4.3 | 23 | > 100 | no significant differences in the absorption spectra | 76 | 338 | 52 | 1.1 | 682 | 573 | +2.3 ± 0.3 | 51.3 | 53.6 | 19.3 | 15.3 | 11.3 | > 8.8 | > 100 | > 2.4 | PI (480 nm) [11]: > 6.5; PI (540 nm) [12]: > 1.9; IC50 [12, 17]: 41 µM; IC50 [12, 18]: > 100 µM
CN(C)c1ccc(/C=C/c2ccnc(-c3cc(/C=C/c4ccc(N(C)C)cc4)ccn3)c2)cc1.CN(C)c1ccc(/C=C/c2ccnc(-c3cc(/C=C/c4ccc(N(C)C)cc4)ccn3)c2)cc1.F[P-](F)(F)(F)(F)F.F[P-](F)(F)(F)(F)F.[Ru+2].c1ccc(-c2ccccn2)nc1 [compound 4, [Ru(2,2′-bipyridine)((E,E′)-4,4′-Bis[p-(N,N-dimethylamino)styryl]-2,2′-bipyridine)2][PF6]2] | > 13.7 | > 10.4 | 9.6 | > 100 | small changes in the absorption spectra | 69 | 417 | 34 | 0.4 | 703 | 838 | +1.7 ± 0.3 | 19 | 10.9 | 7.3 | 8.5 | 10.6 | > 9.4 | > 100 | > 7.0 | PI (480 nm) [11]: > 11.8; PI (540 nm) [12]: > 5.3; IC50 [12, 17]: 14.3 µM; IC50 [12, 18]: > 100 µM
COc1ccc(/C=C/c2ccnc(-c3cc(/C=C/c4ccc(OC)cc4)ccn3)c2)cc1.COc1ccc(/C=C/c2ccnc(-c3cc(/C=C/c4ccc(OC)cc4)ccn3)c2)cc1.F[P-](F)(F)(F)(F)F.F[P-](F)(F)(F)(F)F.[Ru+2].c1ccc(-c2ccccn2)nc1 [compound 5, [Ru(2,2′-bipyridine)((E,E′)-4,4′-Bis[p-methoxystyryl]-2,2′-bipyridine)2][PF6]2] | > 19.6 | > 16.1 | 6.2 | > 100 | no significant differences in the absorption spectra | 36 | 231 | 54 | 1.4 | 674 | 313 | +1.4 ± 0.2 | 17.8 | 10.2 | 5.1 | 6.4 | 7.9 | > 12.7 | > 100 | > 6.5 | PI (540 nm) [12]: > 5.6; IC50 [12, 17]: 15.3 µM; IC50 [12, 18]: > 100 µM
